Test results from paper PMC9116648, “Synthesis and biological evaluation of thiazolidine-2-thione derivatives as novel xanthine oxidase inhibitors” (PLoS ONE, 2022).
“Also recorded” adds a separate entry of the source. Read-outs that look alike come from different tables or passages of the source.

What was measured:
Xanthine oxidase (XO) [1] = target: T1, Xanthine oxidase (XO) (Homo sapiens, UniProt P47989); settings: literature statement; cited from earlier work
Xanthine oxidase (XO) [2] = target: T1, Xanthine oxidase (XO); experiment: In vitro XO inhibitory potency (enzyme catalysis reaction, OD 295 nm); type: biochemical
Protocol: XO inhibitory activity was measured by enzyme catalysis reaction in vitro, with modifications. The XO solution (100 U/L) and xanthine solution (0.5 mmol/L) were prepared in PBS (10 mmol/L, pH = 7.4) and stored at 4°C. The test compounds were diluted to different concentrations with PBS. The enzyme catalysis reaction was performed in 96-well plates.

Xanthine oxidase (XO) [3] = target: T1, Xanthine oxidase (XO); experiment: Enzyme inhibitory kinetics (Lineweaver-Burk plots); type: biochemical
Protocol: The inhibitory mode of representative compound 6k was further investigated using enzyme inhibitory kinetic studies. XO solution (55 U/L) was mixed respectively with compound 6k (0, 5, 10, and 20 μmol/L) and incubated at 37°C for 5 min. Then, xanthine solution (0.25, 0.5, 1.0, and 2.0 mmol/L) were added to initiate the reaction at 37°C for 30 min. The reaction was carried out in a 96-well plate and the OD value were read using a microplate reader at 295 nm. The obtained data were analyzed using Microsoft Excel 2013 and transformed into Lineweaver-Burk plots using GraphPad Prism 7.0. In addition, the value of Ki and Kis could be calculated using GraphPad Prism 7.0.

[4] = S1 Table, mean of three determinations, unit inferred, read-out: IC50 mean
[5] = S1 Table, single determination 1 of 3, unit inferred, read-out: IC50 (first replicate column)
[6] = S1 Table, single determination 2 of 3, unit inferred, read-out: IC50 (second replicate column)
[7] = S1 Table, single determination 3 of 3, unit inferred, read-out: IC50 (third replicate column)
[8] = mean±SD, tested in triplicate, xanthine substrate, 37°C, PBS pH 7.4, read-out: IC50

T1 sequence (P47989 whole entry, species assumed): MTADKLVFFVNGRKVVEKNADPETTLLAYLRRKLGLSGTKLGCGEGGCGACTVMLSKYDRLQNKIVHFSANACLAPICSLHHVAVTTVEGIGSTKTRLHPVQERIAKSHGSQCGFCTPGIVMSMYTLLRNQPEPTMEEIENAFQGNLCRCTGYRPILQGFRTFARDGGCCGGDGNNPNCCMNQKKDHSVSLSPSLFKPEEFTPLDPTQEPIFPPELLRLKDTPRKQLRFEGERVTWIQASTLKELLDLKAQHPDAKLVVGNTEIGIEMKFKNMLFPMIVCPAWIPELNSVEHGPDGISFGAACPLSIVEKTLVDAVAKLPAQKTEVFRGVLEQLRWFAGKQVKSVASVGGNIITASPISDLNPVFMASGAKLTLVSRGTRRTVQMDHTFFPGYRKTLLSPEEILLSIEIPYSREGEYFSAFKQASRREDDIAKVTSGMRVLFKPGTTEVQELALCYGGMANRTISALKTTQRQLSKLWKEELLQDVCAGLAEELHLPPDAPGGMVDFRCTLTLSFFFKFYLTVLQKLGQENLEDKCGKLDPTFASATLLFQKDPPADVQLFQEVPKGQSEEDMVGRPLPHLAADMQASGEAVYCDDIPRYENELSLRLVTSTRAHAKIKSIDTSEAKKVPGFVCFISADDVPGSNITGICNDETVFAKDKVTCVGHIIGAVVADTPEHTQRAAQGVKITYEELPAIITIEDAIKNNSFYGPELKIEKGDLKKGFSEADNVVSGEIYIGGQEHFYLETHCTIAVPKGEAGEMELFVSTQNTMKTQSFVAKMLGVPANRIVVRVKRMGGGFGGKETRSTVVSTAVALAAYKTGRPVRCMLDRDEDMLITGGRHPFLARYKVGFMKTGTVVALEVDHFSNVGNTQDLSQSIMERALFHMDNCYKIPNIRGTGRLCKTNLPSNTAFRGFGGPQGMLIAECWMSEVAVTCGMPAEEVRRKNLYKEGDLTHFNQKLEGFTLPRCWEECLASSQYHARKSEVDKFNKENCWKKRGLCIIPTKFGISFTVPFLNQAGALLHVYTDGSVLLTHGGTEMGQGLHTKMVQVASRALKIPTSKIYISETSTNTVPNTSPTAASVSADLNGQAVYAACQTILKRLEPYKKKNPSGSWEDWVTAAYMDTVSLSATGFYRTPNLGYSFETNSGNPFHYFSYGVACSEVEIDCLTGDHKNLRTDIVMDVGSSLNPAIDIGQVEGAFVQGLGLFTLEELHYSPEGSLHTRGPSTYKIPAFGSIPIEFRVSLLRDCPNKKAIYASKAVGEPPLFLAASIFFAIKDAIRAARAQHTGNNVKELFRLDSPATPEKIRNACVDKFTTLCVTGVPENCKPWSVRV

Compound	IC50 (Xanthine oxidase (XO) [2]; [4]) [µM]	IC50 (Xanthine oxidase (XO) [2]; [5]) [µM]	IC50 (Xanthine oxidase (XO) [2]; [6]) [µM]	IC50 (Xanthine oxidase (XO) [2]; [7]) [µM]	IC50 (Xanthine oxidase (XO) [2]; [8]) [µM]	melting point [°C]	other results
Oc1ncnc2[nH]ncc12 [Allopurinol]	–	–	–	–	–	–	Mode of XO inhibition (Xanthine oxidase (XO) [1]): competitive inhibition
SC1=NCCS1 [Compound 3, thiazolidine-2-thione]	72.2	74.1	72.3	70.1	72.2 ± 1.66	–	–
CCN1CCSC1=S [Compound 4a, 3-ethyl-thiazolidine-2-thione]	43.5	43.4	40.9	46.3	43.5 ± 2.18	–	–
CCCNC(=O)N1CCSC1=S [Compound 6b, N-propyl-2-thioxothiazolidine-3-carboxamide]	27.8	27.2	27.6	28.6	27.8 ± 0.63	–	–
O=C(Nc1ccccc1)N1CCSC1=S [Compound 6e, N-phenyl-2-thioxothiazolidine-3-carboxamide]	10.2	10.6	8.38	11.7	10.2 ± 1.37	101 to 102	–
O=C(NS(=O)(=O)c1ccccc1)N1CCSC1=S [Compound 6i, N-(phenylsulfonyl)-2-thioxothiazolidine-3-carboxamide]	5.19	5.19	4.02	6.35	5.19 ± 0.95	121 to 123	–
O=C(NS(=O)(=O)c1ccc(F)cc1)N1CCSC1=S [Compound 6k, N-((4-fluorophenyl)sulfonyl)-2-thioxothiazolidine-3-carboxamide]	3.56	3.19	4.42	3.06	3.56 ± 0.61	–	Mode of XO inhibition (Xanthine oxidase (XO) [3]; Lineweaver-Burk plots): mixed-type XO inhibition; also recorded: mixed competitive inhibition; also recorded: mixed-type XO inhibitor; Intercept of Lineweaver-Burk plot (Xanthine oxidase (XO) [3]; compound 6k 5 µmol/L): 1.487; Slope of Lineweaver-Burk plot (Xanthine oxidase (XO) [3]; compound 6k 5 µmol/L): 3.559; Intercept of Lineweaver-Burk plot (Xanthine oxidase (XO) [3]; compound 6k 10 µmol/L): 2.126; Slope of Lineweaver-Burk plot (Xanthine oxidase (XO) [3]; compound 6k 10 µmol/L): 4.587; Intercept of Lineweaver-Burk plot (Xanthine oxidase (XO) [3]; compound 6k 20 µmol/L): 2.357; Slope of Lineweaver-Burk plot (Xanthine oxidase (XO) [3]; compound 6k 20 µmol/L): 6.098; Ki (Xanthine oxidase (XO) [3]; from secondary plot of Lineweaver-Burk slopes, XO 55 U/L): 7.08 µM; XO inhibitory potency relative to allopurinol (fold more potent) (Xanthine oxidase (XO) [2]; ratio of IC50 values vs allopurinol): approximately 2.5 fold
Cc1nc(-c2ccc(OCC(C)C)c(C#N)c2)sc1C(=O)O [Febuxostat, reference compound]	–	–	–	–	–	–	IC50 (Xanthine oxidase (XO) [2]; IC50 (first replicate column), S1 Table, single determination 1 of 3, unit inferred): 3.02 µM; IC50 (Xanthine oxidase (XO) [2]; IC50 (second replicate column), S1 Table, single determination 2 of 3, unit inferred): 2.91 µM; IC50 (Xanthine oxidase (XO) [2]; IC50 (third replicate column), S1 Table, single determination 3 of 3, unit inferred): 4.08 µM; IC50 (Xanthine oxidase (XO) [2]; IC50, mean±SD, tested in triplicate, xanthine substrate, 37°C, PBS pH 7.4): 3.34 ± 0.53 µM; IC50 (Xanthine oxidase (XO) [2]; IC50 mean, S1 Table, mean of three determinations, unit inferred): 3.34 µM

Continued by falling IC50 (Xanthine oxidase (XO) [2]; [4]), values first:

IC50 (Xanthine oxidase (XO) [2]; [4]) [µM]	IC50 (Xanthine oxidase (XO) [2]; [5]) [µM]	IC50 (Xanthine oxidase (XO) [2]; [6]) [µM]	IC50 (Xanthine oxidase (XO) [2]; [7]) [µM]	IC50 (Xanthine oxidase (XO) [2]; [8]) [µM]	melting point [°C]	Compound	other results
114	122	109	110	> 100	115 to 117	S=C1SCCN1Cc1ccccc1 [Compound 4d, 3-benzyl-thiazolidine-2-thione]	–
58.2	50.5	57.2	66.8	58.2 ± 6.71	–	CCCN1CCSC1=S [Compound 4b, 3-propyl-thiazolidine-2-thione]	–
51.6	49.4	52.2	53.3	51.6 ± 1.64	–	S=C1SCCN1c1ccccc1 [Compound 4c, 3-phenyl-thiazolidine-2-thione]	–
30.5	30.1	33.5	28	30.5 ± 2.25	–	CCCCNC(=O)N1CCSC1=S [Compound 6c, N-butyl-2-thioxothiazolidine-3-carboxamide]	–
22.9	19.9	23.5	25.3	22.9 ± 2.24	–	CCNC(=O)N1CCSC1=S [Compound 6a, N-ethyl-2-thioxothiazolidine-3-carboxamide]	–
19	21	17.7	18.4	19 ± 1.44	–	CC(C)CNC(=O)N1CCSC1=S [Compound 6d, N-isobutyl-2-thioxothiazolidine-3-carboxamide]	–
14.5	17.7	15.1	10.7	14.5 ± 2.9	111 to 113	O=C(Nc1cccnc1)N1CCSC1=S [Compound 6g, N-(pyridin-3-yl)-2-thioxothiazolidine-3-carboxamide]	–
12.8	12.8	14.8	10.8	12.8 ± 1.6	107 to 109	O=C(NCc1ccccc1)N1CCSC1=S [Compound 6f, N-benzyl-2-thioxothiazolidine-3-carboxamide]	–
9.87	8.25	11.1	10.3	9.87 ± 1.19	114 to 115	O=C(NC1CCCCC1)N1CCSC1=S [Compound 6h, N-cyclohexyl-2-thioxothiazolidine-3-carboxamide]	–
9.76	11.5	8.48	9.27	9.76 ± 1.29	127 to 129	Cc1ccc(S(=O)(=O)NC(=O)N2CCSC2=S)cc1 [Compound 6j, N-((4-methylphenyl)sulfonyl)-2-thioxothiazolidine-3-carboxamide]	–
